Laboratory results as given in patent publication US6822097B1, “Compounds and methods of uses” (Amgen, Inc., priority 2002, dated 2004).
Counter-ions that a name gives are not always drawn.

Structure (SMILES) | melting point
O=C(O)c1cccc2[nH]c(=O)c(-c3csc(-c4ccncc4)n3)cc12 [Example 10, 1,2-Dihydro-2-oxo-3-[2-(4-pyridyl)-4-thiazolyl]-5-quinolinecarboxylic acid] | > 250 °C
O=c1[nH]c2ccccc2cc1-c1csc(Nc2cccnc2)n1 (as salt: hydrobromid) [Example 68, 3-[2-(3-Pyridylamino)-1,3-thiazol-4-yl]hydroquinolin-2-one] | > 300 °C
O=c1[nH]c2ccccc2c(O)c1-c1csc(-c2ccncc2)n1 [Example 5, 3-[2-(4-pyridyl)-4-thiazolyl]-4-hydroxy-2(1H)-quinolinone] | > 250 °C
COc1cc2[nH]c(=O)c(-c3csc(-c4cccnc4)n3)c(N)c2cc1OC [Example 20, 3-[2-(3-Pyridyl)-4-thiazolyl]-4-amino-6,7-dimethoxy-2(1H)-quinolinone] | > 250 °C
O=C(Cc1ccccc1)Nc1nc(-c2cc3ccccc3[nH]c2=O)cs1 [Example 72, N-[4-(2-Oxo(3-hydroquinolyl))(1,3-thiazol-2-yl)]-2-phenylacetamide] | 272 to 278 °C
O=c1[nH]c2ccccc2cc1-c1csc(-c2ccncc2)n1 [Example 1, 3-[2-(4-Pyridyl)-4-thiazolyl]-2(1H)-quinolinone] | 241 to 243 °C
O=c1[nH]c2ccccc2cc1-c1csc(NS(=O)(=O)c2ccccc2)n1 [Example 70, 3-{2-[(Phenylsulfonyl)amino]-1,3-thiazol-4-yl}hydroquinolin-2-one] | > 300 °C
O=c1[nH]c2ccccc2cc1-c1csc(Nc2ccncc2)n1 (as salt: hydrobromid) [Example 69, 3-[2-(4-Pyridylamino)-1,3-thiazol-4-yl]hydroquinolin-2-one] | > 300 °C
O=c1[nH]c2cc3c(cc2cc1-c1csc(-c2cccnc2)n1)OCO3 [Example 9, 3-[2-(3-Pyridyl)-4-thiazolyl]-6,7-(methylenedioxyl)-2(1H)-quinolinone] | > 220 °C
CN1CCN(c2ccc3[nH]c(=O)c(-c4csc(-c5ccncc5)n4)c(N)c3c2)CC1 [Example 22, 3-[2-(4-Pyridyl)-4-thiazolyl]-4-amino-6-(4-methyl-1-piperazinyl)-2(1H)-quinolinone] | > 220 °C
COc1ccc(CC(=O)Nc2nc(-c3cc4ccccc4[nH]c3=O)cs2)c(OC)c1 [Example 73, 2-(2,4-Dimethoxyphenyl)-N-[4-(2-oxo(3-hydroquinolyl))(1,3-thiazol-2-yl)]acetamide] | 295 to 300 °C (dec.)
O=c1[nH]c2ccccc2cc1-c1csc(Nc2ccccn2)n1 (as salt: hydrobromid) [Example 67, 3-[2-(2-pyridylamino)-1,3-thiazol-4-yl]hydroquinolin-2-one] | 307 to 312 °C (dec.)

Results, then the compound that gave them:

melting point | Structure (SMILES)
247 to 249 °C | CN(c1nc(-c2cc3ccccc3[nH]c2=O)cs1)S(=O)(=O)c1cccc(F)c1 [Example 8731, 3-Fluoro-N-methyl-N-[4-(2-oxo-1,2-dihydro-quinolin-3-yl)-thiazol-2-yl]-benzenesulfonamide]
228 to 232 °C | O=c1[nH]c2ccccc2cc1-c1csc(N(Cc2ccccc2)S(=O)(=O)c2ccccc2)n1 [Example 8728, N-Benzyl-N-[4-(2-oxo-1,2-dihydro-quinolin-3-yl)-thiazol-2-yl]-benzenesulfonamide]
221 to 224 °C (dec.) | O=c1[nH]c2ccccc2cc1-c1csc(NCc2ccco2)n1 (as salt: hydrobromid) [Example 79, 3-{2-[(2-Furylmethyl)amino]-1,3-thiazol-4-yl}hydroquinolin-2-one hydrobromide]
279 to 282 °C | COc1cccc(-c2csc(-c3cc4ccccc4[nH]c3=O)n2)c1 [Example 115, 3-[4-(3-Methoxyphenyl)-1,3-thiazol-2-yl]hydroquinolin-2-one]
242 to 244 °C | Cc1onc(-c2ccccc2)c1-c1csc(-c2cc3ccccc3[nH]c2=O)n1 [Example 116, 3-[4-(5-Methyl-3-phenylisoxazol-4-yl)-1,3-thiazol-2-yl]hydroquinolin-2-one]
> 300 °C | CCNC(=O)c1ccc2cc(-c3csc(N(C)S(=O)(=O)c4ccccc4)n3)c(=O)[nH]c2c1 [Example 8766, 3-[2-(Benzenesulfonyl-methyl-amino)-thiazol-4-yl]-2-oxo-1,2-dihydro-quinoline-7-carboxylic acid ethylamide]
> 300 °C | COC(=O)c1ccc2cc(-c3csc(N(C)S(=O)(=O)c4ccccc4)n3)c(=O)[nH]c2c1 [Example 8763]
